For 12 molecules, inhibition in vivo results are on record in patent US20090170886A1 (Pfizer Inc, priority 2005, published 2009).

Read-outs that look alike come from different tables or passages of the source.

This assay has as its system sebum production in ear sebaceous glands of male Syrian hamsters. The experiment in a line: Animal Model for Inhibition of Sebum Production (hamster ear, HPLC of sebum lipids). The assay is classed as in vivo, Syrian hamster. Conditions: Mesocricetus auratus, 672 h, 4 weeks; for inhibition in vivo at 3 %: 3% topical twice daily; for inhibition in vivo at 1 %: 1% topical twice daily; for inhibition in vivo at 1.5 %: 1.5% topical twice daily. On the procedure:
Luderschmidt et al. describes an animal model for testing whether compounds are capable of modulating sebum secretion, Arch. Derm. Res., 258, 185-191 (1977). This model uses male Syrian hamsters, whose ears contain sebaceous glands. Based on binding data and cellular assay data, selected compounds were chosen for screening in this model. Those compounds included the products of Examples 1, 20, 81, 82, and 109.
Testing for sebum inhibition was carried out in the following manner. Male Syrian hamsters aged 9 to 10 weeks were introduced into the laboratory environment and acclimated for 2 weeks prior to use in the study. Each group consisted of 5 animals and run in parallel with vehicle and positive controls. Prior to administration, a sufficient quantity of each compound was dissolved in 1 mL of a solvent consisting of ethanol, transcutol, and propylene glycol ([…]) to achieve the final concentration specified in Table IV below.
Animals were dosed topically twice daily, five days a week, for 4 weeks. Each dose consisted of 25 micro liters of vehicle control or drug. The dose was applied to the ventral surfaces of both the right and left ears. All animals were sacrificed approximately 18-24 hours after the final dose. The right ears were collected from each animal and used for sebum analysis.
The ears were prepped for HPLC analysis in the following manner. One 8 mm distal biopsy punch was taken, just above the anatomical “V” mark in the ear to normalize the sample area. The punch was pulled apart. The ventral biopsy surface (the area where the topical dose was directly applied to the sebaceous glands) was retained for testing and the dorsal surface of the biopsy punch was discarded.
Tissue samples were blown with N2 gas and stored at −80° C. under nitrogen until HPLC analysis. In addition to ear samples, an aliquot of each drug and vehicle (at least 250 ul) was also stored at −80° C. for inclusion in the HPLC analysis.
HPLC analysis was carried out on an extract of the tissue sample. Tissue samples were contacted with 3 ml of solvent (a 4:1 admixture of 2,2,4-trimethylpentane and isopropyl alcohol). The mixture was shaken for 15 minutes and stored overnight at room temperature, protected from light. The next morning 1 milliliter of water was added to the sample and shaken for 15 minutes. The sample was then centrifuged at approximately 1500 rpm for 15 minutes. Two ml of the organic phase (top layer) was transferred to a glass vial, dried at 37° C., under nitrogen, for approximately 1 hour, and then lyophilized for approximately 48 hours. The samples were then removed from the lyophilizer and each vial was reconstituted with 600 μl of solvent A (trimethylpentane/tetrahydrofuran (99:1)). The samples were then recapped and vortexed for 5 minutes.
Two hundred (200) μl of each sample was then transferred to a pre-labeled 200 μl HPLC vial with 200 μL glass inserts. The HPLC vials were placed in the autosampler tray for the Agilent 1100 series HPLC unit. The Agilent 1100 HPLC system consisted of a thermostated autosampler, a quarternary pump, a column heater, and an A/D interface module. All components were controlled by Agilent ChemStation software. A Waters Spherisorb S3W 4.6×100 mm analytical column was maintained at 30° C. by the Agilent column heater unit.
The HPLC autosampler was programmed to maintain the sample temperature at 20° C. throughout the run.
Ten (10) uL of each sample was injected in triplicate into the column. Two solvents were used for the solvent gradient. Solvent A was an admixture of trimethylpentane and tetrahydrofuran (99:1). Solvent B was ethylacetate. The gradient utilized is described in the table below: […]
The Sedex 75 Evaporative Light Scattering Detector (ELSD) was operated at 45° C. with a gain of 5, and N2 pressure maintained at 3.1 bar. Analog signal obtained by the instrument was sent to the Agilent A/D interface module where it was converted to a digital output. […]

Where [1] appears, read: cholesterol ester vs vehicle control, read-out: % CE reduction.
The mark [2] stands for this setting: wax ester vs vehicle control, read-out: % WE reduction.

For `CC(Oc1ccc(C#N)c(C(F)(F)F)c1)c1ccccc1` (racemic) [Example 1, 4-(1-Phenyl-ethoxy)-2-trifluoromethyl-benzonitrile], the inhibition in vivo at 3 % was determined as 52% under setting [1] and 71% under setting [2].

As to `CCCC(Oc1ccc(C#N)c(C(F)(F)F)c1)c1cccc(O)c1` (racemic) [Example 14, 4-[1-(3-Hydroxyphenyl)butoxy]-2-(trifluoromethyl)benzonitrile], the inhibition in vivo at 3 % under setting [1] came out at 18% and the inhibition in vivo at 3 % under setting [2] worked out at 38%.

With `CCCC(Oc1ccc(C#N)c(C(F)(F)F)c1)c1cccc(O)c1` (single isomer, unassigned; (+)) [Example 15, (+)4-[1-(3-Hydroxyphenyl)butoxy]-2-(trifluoromethyl)benzonitrile], the inhibition in vivo at 1 % reads like this: under setting [1], -10%; under setting [2], -13%.

As for `CC(C)CC(Oc1ccc(C#N)c(C(F)(F)F)c1)c1cccc(O)c1` (single isomer, unassigned; (+)) [Example 21, (+)4-[1-(3-Hydroxyphenyl)-3-methylbutoxy]-2-(trifluoromethyl)benzonitrile], the inhibition in vivo at 1 % runs as follows: under setting [1], 7%; under setting [2], 19%.

For `CC(Oc1ccc(C#N)c(C(F)(F)F)c1)c1cncc(O)c1` (single isomer, unassigned; (+)) [Example 74, (+)4-[1-(5-Hydroxypyridin-3-yl)ethoxy]-2-(trifluoromethyl)benzonitrile], the inhibition in vivo at 1 % runs as follows: under setting [1], 21%; under setting [2], 24%.

`CC(Oc1ccc(C#N)c(C(F)(F)F)c1)c1cccc(O)c1` (single isomer, unassigned; (-)) [Example 9, (−)-4-[1-(3-Hydroxyphenyl)ethoxy]-2-(trifluoromethyl)benzonitrile]: the inhibition in vivo at 3 % reads like this: under setting [1], 38%; under setting [2], 52%.

For `C=CCC(Oc1ccc(C#N)c(C(F)(F)F)c1)c1cccc(O)c1` (single isomer, unassigned; (-)) [Example 19, (−)4-{[1-(3-Hydroxyphenyl)but-3-enyl]oxy}-2-(trifluoromethyl)benzonitrile], the inhibition in vivo at 1 % is, setting by setting: under setting [1], 6%; under setting [2], 13%.

With `N#Cc1ccc(OCc2cccc(O)c2)cc1C(F)(F)F` [Example 6, 4-[(3-Hydroxybenzyl)oxy]-2-(trifluoromethyl)benzonitrile], the inhibition in vivo at 1.5 % is, setting by setting: under setting [1], 25%; under setting [2], 40%.

`CCC(Oc1ccc(C#N)c(C(F)(F)F)c1)c1ccccn1` (stereo not drawn) [Example 79, 4-(1-Pyridin^−2-yl-propoxy)-2-trifluoromethyl-benzonitrile]: the inhibition in vivo at 1 % was 20% under setting [1] and 27% under setting [2].

Turning to `COc1cccc(C(C)Oc2ccc(C#N)c(C(F)(F)F)c2)n1` (stereo not drawn) [Example 80, 4-[1-(6-Methoxy-pyridin-2-yl)-ethoxy]-2-trifluoromethyl-benzonitrile], the inhibition in vivo at 1 % under setting [1] is 39% and the inhibition in vivo at 1 % under setting [2] was 50%.

Consider `CC(C)CC(Oc1ccc(C#N)c(C(F)(F)F)c1)c1cccnc1` (stereo not drawn) [Example 88, 4-(3-Methyl-1-pyridin-3-yl-butoxy)-2-trifluoromethyl-benzonitrile], for which the inhibition in vivo at 1 % by setting is: under setting [1], 17%; under setting [2], 25%.

`Cc1ccc(C(CC(C)C)Oc2ccc(C#N)c(C(F)(F)F)c2)cn1` (stereo not drawn) [Example 89, 4-[3-Methyl-1-(6-methyl-pyridin-3-yl)-butoxy]-2-trifluoromethyl-benzonitrile]: the inhibition in vivo at 1 % under setting [1] was 21% and the inhibition in vivo at 1 % under setting [2] is 35%.
